What was measured:
[1] = system: HCV; assay: HCV focus reduction assay; assay type: cell-based, Hepatitis C virus (JFH-1); conditions: for Inhibition of HCV infection: cell culture model of HCV infection; for Fold Inhibition: inhibition of HCV infection; for Fold Inhibition / % of Mock: peptide approximately 20 μM, Huh-7.5.1 cells, 3 days; for % of Mock: number of HCV foci as % of mock (0.5% DMSO); for Fold inhibition of HCV infection: peptide library screen, approximately 20 μM; for 1/3 diluted / 1/9 diluted / No dilution: HCV foci; for 1/3 diluted: 1/3 of final concentration (6 μM); for 1/9 diluted: 1/9 of final concentration (2 μM); for No dilution: final concentration 17-20 μM, MOCK 53 ± 4
Procedure: To identify peptides that display antiviral activity against HCV infection, the peptide library was screened by an HCV focus reduction assay. The peptides were constituted in 100% DMSO at a final concentration 10 mg/mL, and stored in −20° C. The peptide stock solution was diluted 1:200 to a final concentration approximately 20 μM in complete DMEM growth medium containing 50 focus forming units (ffu) of HCV. The virus-peptide mixture was transferred to Huh-7.5.1 cells at a density of 8000 cells per well in a 96-well plate. After adsorption for 4 hours at 37° C., the inoculum was removed. The cells were washed 2 times, overlaid with 120 μL fresh growth medium and incubated at 37° C. After 3 days of culture, the cells were fixed with paraformaldehyde and immunostained with antibody against HCV nonstructural protein NS5A. The numbers of HCV foci were counted under fluorescent microscopy and the result is expressed as percentage (%) of mock with no peptide treatment but containing solvent 0.5% DMSO.
To determine whether the antiviral activity of peptide 1 is dependent on its primary amino acid sequence, four derivative peptides from peptide 1 were synthesized to a purity >95%. The four derivatives having the same composition of amino acids included (1) the reversed the sequence of peptide 1 (also called retro-peptide); (2) scrambled hydrophobic amino acids; (3) scrambled hydrophilic amino acids; and (4) a derivative in which the aspartic acid residues (D) were replaced with proline residues (P). The antiviral activity of the peptides was examined by HCV focus reduction assay at three peptide concentrations: 18 μM, 6 μM and 2 μM, as described above.

[2] = system: HCV; assay: Intracellular HCV RNA by real time RT-QPCR after infection of Huh-7.5.1 cells with and without peptide; assay type: cell-based, Hepatitis C virus (JFH-1); conditions: for HCV RNA fold inhibition 24 h 25 μM / HCV RNA fold inhibition 72 h 25 μM: Huh-7.5.1 cells, MOI 0.1, normalized to GAPDH
Procedure: To accurately quantify the inhibitory effect of the selected peptides on HCV infection, intracellular HCV RNA was measured after infection by real time RT-QPCR with and without peptide treatment. The peptide stock solution was diluted 1:100 and mixed with equal volume of viral supernatant (propagated from day 18 virus preparation post transfection) to a final concentration approximately 20 μM. The virus with peptide or 0.5% DMSO solvent control was then used to infect Huh-7.5.1 cells at a multiplicity of infection (MOI) of 0.1. After an adsorption for 4 hours at 37° C., the inoculum was removed. The cells were washed 2 times, overlaid with 120 μL fresh growth medium and incubated at 37° C. At the indicated time points, total cellular RNA was isolated by the guanidine thiocyanate method. The HCV RNA transcript level was measured by real time RT-QPCR with the primers 5′—
normalized to cellular GAPDH levels.
To define the antiviral action of peptide #1 (SEQ ID NO:43), the antiviral activity of a series of N-terminal and C-terminal truncations of peptide 1 was analyzed using the focus reduction assay and by measuring the reduction in intracellular HCV RNA as described.

Sequence: ALYVGDLCGSVFLVGQLF [Peptide 7]
- Inhibition of HCV infection [1]: strongly inhibit HCV infection
- Fold Inhibition [1]: 100.0 fold
- % of Mock [1]: 1.0%
- Fold inhibition of HCV infection [1]: more than ten-fold
- HCV RNA fold inhibition 24 h 25 μM ([2]; 24 h): 20 fold
- HCV RNA fold inhibition 72 h 25 μM ([2]; 72 h): 11 fold

Sequence: APTLWARMILMTHFFSVL [Peptide 7331]
- Fold Inhibition [1]: 2.2 fold
- % of Mock [1]: 45.2%

Sequence: ATQTFLATCINGVCWTVY [Peptide 12]
- Inhibition of HCV infection [1]: strongly inhibit HCV infection
- Fold Inhibition [1]: 42.0 fold
- % of Mock [1]: 2.4%
- Fold inhibition of HCV infection [1]: more than ten-fold
- HCV RNA fold inhibition 24 h 25 μM ([2]; 24 h): 8 fold
- HCV RNA fold inhibition 72 h 25 μM ([2]; 72 h): 5 fold

Sequence: AYMNTPGLPVCQDHLEFW [Peptide 7146]
- Fold Inhibition [1]: 2.5 fold
- % of Mock [1]: 40.5%

Sequence: CEVLSDFK [^N-8mer]
- Focus Reduction (72 h) ([1]; 72 h, working concentration 18.4-27.5 μM per peptide, Mock 51): 53
- Fold Inhibition on HCV RNA (24 h) ([2]; 24 h, working concentration 18.4-27.5 μM per peptide): 1.1 fold
- Fold Inhibition on HCV RNA (72 h) ([2]; 72 h, working concentration 18.4-27.5 μM per peptide): 0.7 fold

Sequence: DAILHTPGCVPCVREGNA [Peptide 6957]
- Fold Inhibition [1]: 4.7 fold
- % of Mock [1]: 21.4%

Sequence: DDLVVICESAGVQEDAAS [Peptide 7317]
- Fold Inhibition [1]: 3.8 fold
- % of Mock [1]: 26.2%

Sequence: DQLEQALNCEIYGACYSI [Peptide 7334]
- Fold Inhibition [1]: 3.5 fold
- % of Mock [1]: 28.6%

Sequence: DSSVLCECYDAGCAWYEL [Peptide 7142]
- Fold Inhibition [1]: 2.5 fold
- % of Mock [1]: 40.5%

Sequence: DTEDVVCCSMSYSW [Peptide 7741]
- Inhibition of HCV infection [1]: strongly inhibit HCV infection
- Fold Inhibition [1]: 42.0 fold
- % of Mock [1]: 2.4%
- Fold inhibition of HCV infection [1]: more than ten-fold

Sequence: DVVCCSMSYSWTGAL [Peptide 7742]
- Fold Inhibition [1]: 4.2 fold
- % of Mock [1]: 23.8%

Sequence: DWICEVLSDFKTWLKAKL [Peptide 13]
- Inhibition of HCV infection [1]: strongly inhibit HCV infection
- Fold Inhibition [1]: 42.0 fold
- % of Mock [1]: 2.4%
- Fold inhibition of HCV infection [1]: more than ten-fold
- HCV RNA fold inhibition 24 h 25 μM ([2]; 24 h): 7 fold
- HCV RNA fold inhibition 72 h 25 μM ([2]; 72 h): 2 fold

Sequence: EVFWAKHMWNFISGIQYL [Peptide 7177]
- Fold Inhibition [1]: 4.2 fold
- % of Mock [1]: 23.8%

Sequence: GAVYAFYGMWPLLLLLLA [Peptide 7038]
- Fold Inhibition [1]: 5.3 fold
- % of Mock [1]: 19.0%
- Fold inhibition of HCV infection [1]: five-fold to ten-fold

Sequence: GMWPLLLLLLALPQRAYA [Peptide 7039]
- Fold Inhibition [1]: 3.2 fold
- % of Mock [1]: 31.0%

Sequence: GNTLTCYIKARAACRAAG [Peptide 7313]
- Fold Inhibition [1]: 2.2 fold
- % of Mock [1]: 45.2%

Sequence: GPISYANGSGLDERPYCW [Peptide 6993]
- Fold Inhibition [1]: 4.2 fold
- % of Mock [1]: 23.8%

Sequence: GSATLCSALYVGDLCGSV [Peptide 5]
- Inhibition of HCV infection [1]: strongly inhibit HCV infection
- Fold Inhibition [1]: 100.0 fold
- % of Mock [1]: 1.0%
- Fold inhibition of HCV infection [1]: more than ten-fold
- HCV RNA fold inhibition 24 h 25 μM ([2]; 24 h): 26 fold
- HCV RNA fold inhibition 72 h 25 μM ([2]; 72 h): 27 fold

Sequence: GSGLDERPYCWHYPPRPC [Peptide 6994]
- Fold Inhibition [1]: 3.0 fold
- % of Mock [1]: 33.3%

Sequence: GVPPLRAWRHRARSVRAR [Peptide 7342]
- Fold Inhibition [1]: 2.0 fold
- % of Mock [1]: 50.0%

Sequence: GWAGWLLSPRGSRPSWGP [Peptide 6939]
- Fold Inhibition [1]: 2.2 fold
- % of Mock [1]: 45.2%

Sequence: GWFTAGYSGGDIYHSVSH [Peptide 7350]
- Fold Inhibition [1]: 2.3 fold
- % of Mock [1]: 42.9%

Sequence: HINSTALNCNESLNTGWL [Peptide 6986]
- Fold Inhibition [1]: 2.5 fold
- % of Mock [1]: 40.5%

Sequence: HPITKYIMTCMSADLEVV [Peptide 7160]
- Fold Inhibition [1]: 2.6 fold
- % of Mock [1]: 38.1%

Sequence: HTPVNSWLGNIIMFAPTL [Peptide 7329]
- Fold Inhibition [1]: 2.1 fold
- % of Mock [1]: 47.6%

Sequence: KFDSLVECIWDWIDRLWS (OTHER INFORMATION: A synthetic peptide)
- 1/3 diluted [1]: 50 ± 7
- 1/9 diluted [1]: 31 ± 3
- No dilution [1]: 1 ± 1

Sequence: KWEYVVLLFLLLADARVC [Peptide 7028]
- Fold Inhibition [1]: 2.1 fold
- % of Mock [1]: 47.6%

Sequence: KWLCRIWSWISDVLDDFE (OTHER INFORMATION: A synthetic peptide)
- 1/3 diluted [1]: 8 ± 6
- 1/9 diluted [1]: 15 ± 6
- No dilution [1]: 0 ± 0

Sequence: LAALAAYCLSTGCVV [Peptide 7730]
- Fold Inhibition [1]: 4.7 fold
- % of Mock [1]: 21.4%

Sequence: LASCRRLTDFAQGWGPIS [Peptide 6991]
- Fold Inhibition [1]: 2.8 fold
- % of Mock [1]: 35.7%

Sequence: LEFWEGVFTGLTHIDAHF [Peptide 7148]
- Fold Inhibition [1]: 3.0 fold
- % of Mock [1]: 33.3%

Sequence: LELITSCSSNVSVAHDGA [Peptide 7323]
- Fold Inhibition [1]: 2.3 fold
- % of Mock [1]: 42.9%

Sequence: LPTTQLRRHIDLLVGSAT [Peptide 6962]
- Fold Inhibition [1]: 2.6 fold
- % of Mock [1]: 38.1%

Sequence: MWNFISGIQYLAGLSTLP [Peptide 7178]
- Fold Inhibition [1]: 2.3 fold
- % of Mock [1]: 42.9%

Sequence: MYVGGVEHRLEAACNWTR [Peptide 7016]
- Fold Inhibition [1]: 6.0 fold
- % of Mock [1]: 16.7%
- Fold inhibition of HCV infection [1]: five-fold to ten-fold

Sequence: NCNESLNTGWLAGLFYQH [Peptide 6987]
- Fold Inhibition [1]: 2.8 fold
- % of Mock [1]: 35.7%

Sequence: PAILSPGALVVGVVCAAI [Peptide 7195]
- Fold Inhibition [1]: 2.3 fold
- % of Mock [1]: 42.9%

Sequence: PCVIGGVGNNTLLCPTDC [Peptide 7007]
- Fold Inhibition [1]: 3.0 fold
- % of Mock [1]: 33.3%

Sequence: QIVGGVYLLPRRGPRLGV [Peptide 6930]
- Fold Inhibition [1]: 2.2 fold
- % of Mock [1]: 45.2%

Sequence: QPGYPWPLYGNEGCGWAG [Peptide 6937]
- Fold Inhibition [1]: 2.0 fold
- % of Mock [1]: 50.0%

Sequence: RAAGLQDCTMLVCGDDLV [Peptide 7315]
- Fold Inhibition [1]: 2.0 fold
- % of Mock [1]: 50.0%

Sequence: RHIDLLVGSATLCSALYV [Peptide 6963]
- Fold Inhibition [1]: 3.2 fold
- % of Mock [1]: 31.0%

Sequence: SIASWAIKWEYVVLLFLL [Peptide 7027]
- Fold Inhibition [1]: 2.5 fold
- % of Mock [1]: 40.5%

Sequence: SIWRDWVDLICEFLSDWK (OTHER INFORMATION: A synthetic peptide)
- 1/3 diluted [1]: 31 ± 2
- 1/9 diluted [1]: 16 ± 4
- No dilution [1]: 0 ± 0

Sequence: SSGADTEDVVCCSMS [Peptide 7740]
- Fold Inhibition [1]: 2.3 fold
- % of Mock [1]: 42.9%

Sequence: SWLRPIWPWICEVLSDFK (OTHER INFORMATION: A synthetic peptide)
- 1/3 diluted [1]: 21 ± 8
- 1/9 diluted [1]: 41 ± 2
- No dilution [1]: 9 ± 3

Sequence: TDFAQGWGPISYANGSGL [Peptide 6992]
- Fold Inhibition [1]: 3.2 fold
- % of Mock [1]: 31.0%

Sequence: TSTWVLVGGVLAAL (VTSTWVLVGGVLAAL) [Peptide 7729]
- Fold Inhibition [1]: 8.4 fold
- % of Mock [1]: 11.9%
- Fold inhibition of HCV infection [1]: five-fold to ten-fold

Sequence: TVTESDIRTEEAIYQCCD [Peptide 7304]
- Fold Inhibition [1]: 2.8 fold
- % of Mock [1]: 35.7%

Sequence: VSTATQTFLATCIN [Peptide 7725]
- Fold Inhibition [1]: 2.5 fold
- % of Mock [1]: 40.5%

Sequence: WMNSTGFTKVCGAPPCVI [Peptide 7005]
- Fold Inhibition [1]: 6.0 fold
- % of Mock [1]: 16.7%
- Fold inhibition of HCV infection [1]: five-fold to ten-fold

Sequence: WRHRARSVRARLLSRGGR [Peptide 7343]
- Fold Inhibition [1]: 2.1 fold
- % of Mock [1]: 47.6%

Sequence: WVLVGGVLAALAAYCLST [Peptide 7163]
- Fold Inhibition [1]: 3.8 fold
- % of Mock [1]: 26.2%

Sequence: YVSGMTTDNLKCPCQIPS [Peptide 7226]
- Fold Inhibition [1]: 2.6 fold
- % of Mock [1]: 38.1%
